Measurements published in patent US7151168B2, “Ecdysone receptors and methods for their use” (Pioneer Hi-Bred International, Inc., priority 1998, dated 2006).
Several values for one entry are separate records, joined by “and”; a condition that tells them apart may be missing. Equal entries are not always repeated.

Columns and labels:
Assay type in all cases: cell-based, Ostrinia nubilalis
[1] = tested on: C1::LexA::ecdysone fusion protein (plasmid PHP10956; ligand-binding domain of the Ecdysone receptor)
Excerpt: (§1) To examine the effect of the Ecdysone and USP receptors on promoter-driven expression, a transient transactivation assay was developed using a cell suspension culture derived from maize embryos. (See also, U.S. Pat. No. 5,886,244.) A reporter plasmid, designated PHP11545, was constructed in the pSP72 vector and contained 8 LexA operators, a minimal fragment of the CaMV-59 constitutive promoter, the Omega leader sequence, Adh intron 1, the coding sequence for firefly luciferase, and the PinII terminator sequences.
(§2) Two DNA constructs encoding effector proteins were generated. A chimeric Ecdysone receptor construct designated PHP10956 was generated. PHP10956 contains the Nopaline synthase (NOS) promoter, the Omega leader sequence, Adh1 intron, and the potato protease inhibitor II (PinII) termination sequences cloned into a pUC vector. A fragment encoding a fusion between the maize C1 transactivation domain, the LexA DNA binding domain, and the ligand-binding domain of the Ecdysone receptor was cloned downstream of the intron.
(§3) These constructs were introduced into embryogenic suspension cells by microprojectile bombardment as described by Unger et al. (1993) The Plant Cell 5:831–841. Plasmid DNA encoding effector and reporter sequences was mixed with 50 μl (15 mg/ml) of 1.0 μm tungsten microprojectiles. DNA was precipitated by addition of 50 μl 2.5 M CaCl2 and 20 μl 0.1M spermidine. Microprojectiles and precipitated DNA were centrifuged to a pellet and the supernatant was removed. The pellet was washed by sonication in the presence of 250 μl absolute ethanol, centrifuged and ethanol removed. Sixty μl of fresh absolute ethanol was added and this mixture sonicated to disperse the pellet. Ten μl aliquots of this microprojectile-DNA mixture were placed on each macrocarrier and bombarded into maize suspension cells using a helium-driven microprojectile gun, PDS-1000 (1100 psi rupture disk pressure). […]

[2] = tested on: USP receptor (plasmid PHP10967) and C1::LexA::ecdysone fusion protein (plasmid PHP10956); test: Transient transactivation assay, luciferase reporter PHP11545, maize embryogenic suspension cells, chimeric EcR plus USP (NosCLO/NosUSP)
Excerpt: as §1, §2
A DNA construction containing the USP coding sequences was generated and designated PHP10967. PHP10967 contains the Nos promoter, the Omega leader sequence, Adh1 intron, and the PinII terminator sequences cloned into the pUC vector. The nucleic acid sequence encoding the USP coding region was inserted downstream of the intron.
as §3, with “pellet.” for “pellet. Ten μl aliquots of this microprojectile-DNA mixture were placed on each macrocarrier and bombarded into maize suspension cells using a helium-driven microprojectile gun, PDS-1000 (1100 psi rupture disk pressure).”

[3] = tested on: chimeric Ecdysone receptor: maize C1 transactivation domain, Gal4 DNA binding domain, ligand-binding domain of the Ecdysone receptor (PHP10512); test: Stable transactivation assay, GAL4-responsive luciferase reporter PHP1654, leaf punches of T0 maize plants, PHP10512; conditions: 10 μM RH5992 in H2O, 16 hours; plasmid PHP10512, event 78; individual T0 plant; 20 μl of 200 μl extract
Method: (§4) To further examine the effect of the Ecdysone receptors on promoter-driven expression, a stable transactivation assay was performed using a chimeric Ecdysone receptor. DNA constructs were generated for the expression of both effector and reporter DNA sequences.
(§5) A reporter plasmid, designated PHP1654, was constructed in the pSP72 vector and contained 5 GAL4 responsive elements, a minimal CaMV-59 constitutive promoter, the Omega' leader sequence, Adh intron 1, the coding sequence for firefly Luciferase, and the PinII terminator sequences.
Two DNA constructions encoding chimeric Ecdysone receptor proteins were generated. The chimeric Ecdysone receptor construct designated PHP10512 contains the Nopaline synthase (NOS) promoter, the Omegá leader sequence, Adh1 intron, 355 promoter, PAT gene and the potato protease inhibitor II (PinII) termination sequences cloned into a pUC vector. A fragment encoding a fusion between the maize C1 transactivation domain, the Gal4 DNA binding domain, and the ligand-binding domain of the Ecdysone receptor was cloned downstream of the intron.
Immature embryos approximately 1.5 to 2.0 mm long from the Hi-II genotype (Armstrong and Phillips (1988) Crop Sci. 28:363–369) were bombarded with the PHP1654 reporter plasmid and either PHP10513 or PHP10512. As noted above, a selectable marker gene, PAT, was contained on PHP10513 and PHP10512. […]

[4] = tested on: chimeric Ecdysone receptor: VP16 activation domain, Gal4 DNA binding domain, ligand-binding domain of the Ecdysone receptor (PHP10513); test: Stable transactivation assay, GAL4-responsive luciferase reporter PHP1654, leaf punches of T0 maize plants, PHP10513; conditions: 10 μM RH5992 in H2O, 16 hours, individual T0 plant, 20 μl of 200 μl extract
Method: as §4, §5
The plasmid designated PHP10513 also contains the Nopaline synthase (NOS) promoter, the Omegá leader sequence, Adh1 intron, 355 promoter, PAT gene, and the potato protease inhibitor II (PinII) termination sequences cloned into a pUC vector. However, the fragment encoding the chimeric receptor immediately downstream of the intron, comprises a fusion between the VP16 activation domain, the Gal4 DNA binding domain, and the ligand-binding domain of the Ecdysone receptor.
Immature embryos approximately 1.5 to 2.0 mm long from the Hi-II genotype (Armstrong and Phillips (1988) Crop Sci. 28:363–369) were bombarded with the PHP1654 reporter plasmid and either PHP10513 or PHP10512. As noted above, a selectable marker gene, PAT, was contained on PHP10513 and PHP10512. The PAT gene confers resistance to the herbicide Bialophos. (Wohlleben et al. (1988) Gene 70:25–37.)
Embryos were bombarded using the protocols described in Tomes et al. (1994) Plant Cell, Tissue, and Organ culture, Fundamental Methods 197–213. Specifically, the Hi-II immature embryos were bombarded and cultured on selection medium as described by Songstad et al. 1993 Agronomy Abstracts 183. Plant regeneration from transgenic calli was performed according to the protocol of Armstrong and Phillips (1988) Crop Sci 28:363–369, except that bialaphos (3 mg/l) was added to each of the regeneration media. Plants were established in the greenhouse.
The transactivation of the luciferase reporter sequence by a chimeric Ecdysone receptor was assayed using standard protocols. […]

Q: With `CCc1ccc(C(=O)NN(C(=O)c2cc(C)cc(C)c2)C(C)(C)C)cc1` [RH5992, 3,5-dimethylbenzoic acid 1—1 (1,1-dimethylethyl)-2(4-ethylbenzoyl)hydrazide] as the compound, how does the “Average Light Units (luciferase expression)” value ([1]; 10 μM RH5992, NosCLO only, effector dose 0.02 μg, 16 to 18 hours at 26° C., maize suspension cells) read?
A: 153613 Light Units

Q: And the “Fold Induction (luciferase)” value ([1]; 10 μM RH5992 vs no ligand, NosCLO only, 0.02 μg)?
A: 8.4x

Q: What about the “Transactivation of the LexA responsive luciferase reporter gene (in words)” value ([1]; in the presence of the RH5992 ligand, only C1::LexA::ecdysone fusion protein (PHP10956), no USP) of the same compound?
A: resulted in the transactivation of the LexA responsive luciferase reporter gene

Q: And the “Average Light Units (luciferase expression)” value ([2]; 10 μM RH5992, NosCLO/NosUSP, 0.02 μg each, 16 to 18 hours at 26° C., maize suspension cells)?
A: 201808 Light Units

Q: What about the “Fold Induction (luciferase)” value ([2]; 10 μM RH5992 vs no ligand, NosCLO/NosUSP, 0.02 μg each) of the same compound?
A: 53x

Q: And the “Transactivation of the LexA responsive luciferase reporter (PHP11545)” value ([2]; in the presence of the RH5992 ligand, USP (PHP10967) plus C1::LexA::ecdysone fusion (PHP10956))?
A: 53 fold

Q: And the “RH5992 treated (Light Units), luciferase activity” value (shortened to “RH5992 treated (Light Units)”) [3]?
A: 3771 Light Units and 1819 Light Units and 7742 Light Units and 1027 Light Units and 9742 Light Units and 2486 Light Units and 8494 Light Units and 3988 Light Units and 9265 Light Units and 6198 Light Units and 6293 Light Units and 1045 Light Units and 8354 Light Units and 4720 Light Units

Q: What about the “RH5992 treated (Light Units)” value ([4]; plasmid PH10513, event 30) of the same compound?
A: 38093 Light Units and 26394 Light Units and 24632 Light Units and 33636 Light Units and 28213 Light Units and 22137 Light Units and 105341 Light Units and 44639 Light Units and 49279 Light Units and 83241 Light Units and 61320 Light Units and 130618 Light Units and 95166 Light Units and 35641 Light Units and 37955 Light Units and 38507 Light Units and 37855 Light Units and 42346 Light Units

Q: What about the “RH5992 treated (Light Units)” value ([4]; plasmid PHP10513, event 44) of the same compound?
A: 605147 Light Units and 528950 Light Units and 303021 Light Units and 573842 Light Units and 417072 Light Units and 511220 Light Units and 290095 Light Units

Q: And the “RH5992 treated (Light Units)” value ([4]; plasmid PHP10513, event 117)?
A: 90037 Light Units and 40005 Light Units and 149594 Light Units and 75379 Light Units and 49243 Light Units and 114913 Light Units and 57607 Light Units and 46075 Light Units
